From ChEMBL document CHEMBL4619786, “Discovery of Novel Resorcinol Dibenzyl Ethers Targeting the Programmed Cell Death-1/Programmed Cell Death-Ligand 1 Interaction as Potential Anticancer Agents” (J Med Chem, 2020)

Assays:
[1] = AUC (0 to t) in Sprague-Dawley rat at 1 mg/kg, iv by LC-MS/MS analysis; format: ADME, organism-based; conditions: in vivo
[2] = Clearance in Sprague-Dawley rat at 1 mg/kg, iv by LC-MS/MS analysis; format: ADME, organism-based; conditions: in vivo
[3] = Volume of distribution at steady state in Sprague-Dawley rat at 1 mg/kg, iv by LC-MS/MS analysis; format: ADME, organism-based; conditions: in vivo, read-out: Vdss
[4] = AUC (0 to t) in Sprague-Dawley rat at 10 mg/kg, po by LC-MS/MS analysis; format: ADME, organism-based; conditions: in vivo
[5] = Volume of distribution at steady state in Sprague-Dawley rat at 10 mg/kg, po by LC-MS/MS analysis; format: ADME, organism-based; conditions: in vivo
[6] = test system: A549; experiment: Cytotoxicity against human A549 cells assessed as reduction in cell viability measured after 48 hrs by MTT assay; format: functional, cell-based; conditions: A549, 48 h
[7] = test system: B16-F10; experiment: Antitumor activity against mouse B16/F10 cells implanted in BALB/c mouse assessed as tumor weight at 25 mg/kg, ig administered once daily via gavage for 15 days measured 24 hrs post-last dose (reference value: 0.84 +/- 0.32 g); format: functional
[8] = test system: B16-F10; experiment: Antitumor activity against mouse B16/F10 cells implanted in BALB/c mouse assessed as tumor weight at 50 mg/kg, ig administered once daily via gavage for 15 days measured 24 hrs post-last dose (reference value: 0.84 +/- 0.32 g); format: functional
[9] = test system: B16-F10; experiment: Antitumor activity against mouse B16/F10 cells implanted in BALB/c mouse assessed as tumor growth inhibition at 50 mg/kg, ig administered once daily via gavage for 15 days relative to control; format: functional; conditions: B16-F10, po, 360 h, read-out: TGI
[10] = Toxicity in mouse B16/F10 cells implanted […] mouse assessed as effect on physical activity at 25 to 100 mg/kg, ig administered once daily via gavage for 15 days measured during compound dosing; format: organism-based; conditions: in vivo, po, 360 h
[11] = Toxicity in mouse B16/F10 cells implanted […] mouse assessed as increase in body weight at 25 to 100 mg/kg, ig administered once daily via gavage for 15 days measured during compound dosing; format: organism-based; conditions: in vivo, po, 360 h
[12] = Toxicity in mouse B16/F10 cells implanted […] mouse assessed as change in thymus weight at 25 to 100 mg/kg, ig administered once daily via gavage for 15 days measured 24 hrs post-last dose; format: organism-based; conditions: in vivo, po
[13] = test system: H22; experiment: Antitumor activity against […] cells xenografted in BALB/c mouse assessed as tumor growth inhibition at 25 mg/kg, ip administered once daily 14 days relative to control; format: functional; conditions: 336 h, read-out: TGI
[14] = Toxicity in mouse B16/F10 cells implanted […] mouse assessed as histological changes in kidney at 25 to 100 mg/kg, ig administered once daily via gavage for 15 days measured 24 hrs post-last dose by H and E staining based microscopic analysis; format: organism-based; conditions: in vivo, po
[15] = Toxicity in mouse B16/F10 cells implanted […] mouse assessed as histological changes in liver at 25 to 100 mg/kg, ig administered once daily via gavage for 15 days measured 24 hrs post-last dose by H and E staining based microscopic analysis; format: organism-based; conditions: in vivo, po
[16] = test system: Mus musculus; experiment: (§1) Immunostimulatory activity in mouse B16/F10 cells implanted […] mouse assessed as increase in activation of tumor-microenvironment mediated helper T cells in tumor by measuring CD4-positive cell population at 100 mg/kg, ig administered once daily via gavage for 15 days measured 24 hrs post-last dose by immunostaining based flow cytometry (reference value: 4.95%); format: functional
[17] = test system: Mus musculus; experiment: as §1, with “melanoma” for “CD4-positive”, “70%)” for “4.95%)”; format: functional
[18] = test system: Mus musculus; experiment: as §1, with “activated cytotoxic” for “helper”, “CD8-positive” for “CD4-positive”, “2.2%)” for “4.95%)”; format: functional
[19] = test system: Mus musculus; experiment: as §1, with “activated cytotoxic” for “helper”, “CD3-positive/CD8-positive” for “CD4-positive”, “4.18%)” for “4.95%)”; format: functional
[20] = test system: Mus musculus; experiment: as §1, with “CD3-positive/CD4-positive” for “CD4-positive”, “50” for “100”, “6.15%)” for “4.95%)”; format: functional
[21] = test system: Mus musculus; experiment: as §1, with “CD3-positive” for “CD4-positive”, “50” for “100”, “18.9%)” for “4.95%)”; format: functional
[22] = test system: Mus musculus; experiment: as §1, with “activated cytotoxic” for “helper”, “CD3-positive/CD8-positive” for “CD4-positive”, “50” for “100”, “4.18%)” for “4.95%)”; format: functional
[23] = test system: Mus musculus; experiment: as §1, with “activated cytotoxic” for “helper”, “CD3-positive” for “CD4-positive”, “50” for “100”, “20.8%)” for “4.95%)”; format: functional
[24] = test system: Mus musculus; experiment: as §1, with “melanoma” for “CD4-positive”, “25” for “100”, “70%)” for “4.95%)”; format: functional
[25] = test system: Mus musculus; experiment: Effect on spleen helper T cell population in mouse B16/F10 cells implanted […] mouse assessed as CD3-positive cell population at 100 mg/kg, ig administered once daily via gavage for 15 days measured 24 hrs post-last dose by immunostaining based flow cytometry (reference value: 14.7%); format: organism-based; conditions: in vivo, po
[26] = test system: Mus musculus; experiment: Effect on activated cytotoxic T cell population in mouse B16/F10 cells implanted […] mouse assessed as CD8-positive cell population in spleen at 100 mg/kg, ig administered once daily via gavage for 15 days measured 24 hrs post-last dose by immunostaining based flow cytometry (reference value: 0.383 %); format: organism-based; conditions: in vivo, po
[27] = test system: Mus musculus; experiment: Effect on activated cytotoxic T cell population in mouse B16/F10 cells implanted […] mouse assessed as spleen cell population at 100 mg/kg, ig administered once daily via gavage for 15 days measured 24 hrs post-last dose by immunostaining based flow cytometry (reference value: 57.9 %); format: organism-based; conditions: in vivo, po
[28] = test system: Mus musculus; experiment: Effect on spleen helper T cell population in mouse B16/F10 cells implanted […] mouse assessed as spleen cell population at 50 mg/kg, ig administered once daily via gavage for 15 days measured 24 hrs post-last dose by immunostaining based flow cytometry (reference value: 56.1 %); format: ADME, organism-based; conditions: in vivo, po
[29] = test system: Mus musculus; experiment: (§2) Effect on activated cytotoxic T cell population in mouse B16/F10 cells implanted […] mouse assessed as CD3-positive/CD8-positive cell population in spleen at 50 mg/kg, ig administered once daily via gavage for 15 days measured 24 hrs post-last dose by immunostaining based flow cytometry (reference value: 14.2 %); format: organism-based; conditions: in vivo, po
[30] = test system: Mus musculus; experiment: as §2, with “25” for “50”; format: organism-based; conditions: in vivo, po
[31] = test system: Mus musculus; experiment: Effect on activated cytotoxic T cell population in mouse B16/F10 cells implanted […] mouse assessed as spleen cell population at 25 mg/kg, ig administered once daily via gavage for 15 days measured 24 hrs post-last dose by immunostaining based flow cytometry (reference value: 57.9 %); format: organism-based; conditions: in vivo, po

- AUC(0-t) [1]: 967 ng·h/mL
- clearance [2]: 15 mL/min/kg
- Vd [3]: 2.1 L/kg
- AUC(0-t) [4]: 410 ng·h/mL
- Vdss [5]: 290.3 L/kg
- Activity [25]: 12.8%
- Activity [28]: 53.9%
SMILES: Cc1c(COc2cc(OCc3cccc(C#N)c3)c(CNC(C)(C)C(=O)O)cc2Cl)cccc1-c1ccccc1
- IC50 [6]: > 10 µM
- Activity [7]: 0.41 g
- Activity [8]: 0.21 g
- inhibition in vivo at 50 mg/kg [9]: 75%
- Activity [10]: Non-Toxic
- Activity [11]: Toxic
- Activity [12]: Non-Toxic
- inhibition in vivo at 25 mg/kg [13]: 76.5%
- Activity [14]: Non-Toxic
- Activity [15]: Non-Toxic
- Activity [16]: 1.3%
- Activity [17]: 57%
- Activity [18]: 13.5%
- Activity [19]: 23%
- Activity [20]: 11.7%
- Activity [21]: 17.7%
- Activity [22]: 14.8%
- Activity [23]: 14.5%
- Activity [24]: 65.2%
- Activity [26]: 0.44%
- Activity [27]: 62.6%
- Activity [29]: 15.5%
- Activity [30]: 12.5%
- Activity [31]: 62.7%
